Drawing on PubChem BioAssay (NCI), this text covers TGI and GI50 for 25 molecules.

Molecules are shown by their SMILES. Where “and” joins values, the source holds several entries; their conditions need not be identical. Equal entries are not always repeated.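 Step 1: Grow cells in 96-well plates. Step 2: Expose to compound for 48 hours at 5 concentrations. Step 3: Interpolate endpoints linearly; if unreached, use highest concentration. Here, GI50 denotes the concentration required for 50% inhibition of growth. The concentration for full growth arrest is given as TGI.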 Some results are limits rather than exact numbers.

Common to all, as to test: NCI tumour cell line growth inhibition, 48 h
For assay [1], the system named is SK-MEL-28 melanoma.
Assay [2] deals with SR leukemia.
Assay [3] deals with SF-268 CNS.
For assay [4], the system named is HOP-92 NSCLC.
Assay [5] deals with HL-60(TB) leukemia.
The test system of assay [6] is MOLT-4 leukemia.
The test system of assay [7] is HCT-15 colon.
The subject of assay [8] is A498 renal.
In assay [9] the test system is MDA-MB-435.

As to `CSc1n[n+]2c(s1)SCCC2`, the TGI in assay [1], in assay [2], in assay [3], in [4], in assay [5] and in assay [6] was over 100 µM in each case.
Consider `FC(F)(F)C1(Br)C(c2ccccc2)=C1c1ccccc1`, for which the TGI in assay [1] is 33.8 µM; in assay [2] it was 78.5 µM; in assay [3] it was 43.9 µM; in assay [7], 28 µM; in assay [4] it was 32.2 µM; in assay [5] it was over 100 µM. In assay [6], this molecule came in with a TGI of over 100 µM.
On to `CCOC(=N)/C(=C1\OC(N)=C(c2ccc(Cl)cc2)C1=O)c1ccc(Cl)cc1`, for which the TGI in [1] turned out to be 31.7 µM; in [2], 56.5 µM; in assay [3] it was 31.3 µM; in [4], 34 µM; in assay [8] it was 32.5 µM; in assay [5], 42 µM. In addition, the TGI in assay [6] came to 52.1 µM.
On to `COC1=CC(=O)C2C(C1=O)C(c1ccccc1)[C@H]2C` (stereo partly specified), for which the TGI in [1] was over 100 µM; in assay [2], over 100 µM; in assay [3] it was over 100 µM; in assay [7] it was 35.9 µM; in assay [4] it was 49.4 µM; in [8], over 100 µM. The TGI in [5] was over 100 µM; in assay [6] it was over 10 µM.
Consider `C[N+](C)(C)CC(=O)N/N=C(\C(=O)NC1=C(Cl)C(=O)c2ccccc2C1=O)C(C#N)c1csc(-c2ccc([N+](=O)[O-])cc2)n1` (stereo unspecified), for which the TGI in [1], in [2], in assay [3], in assay [7], in [4] and in assay [8] was over 100 µM throughout. Further, the TGI in assay [5] and in assay [6] was over 100 µM in each case.
Take `CCOc1cccc2ccc[n+](CC)c12`: the TGI is over 100 µM in assay [1], 77.9 µM in assay [3], over 100 µM in [4] and over 100 µM in [6].
`COC(=O)C1[C@H](c2cc(OC)c(OC)c(OC)c2)OC(=O)C1(C(=O)OC)C(=O)c1ccc2c(c1)OCO2` (stereo partly specified): the TGI in [1], in assay [3], in assay [7], in assay [4], in assay [8] and in assay [5] was over 100 µM in each case. For the same molecule, the TGI in assay [6] was over 100 µM.
Consider `N#C/C(=C1\SC(N=Nc2ccccc2)C(=O)N1c1ccccc1)c1nc2ccccc2[nH]1` (stereo unspecified), for which the TGI in assay [1], in assay [3], in [7], in [4], in [8] and in assay [5] was over 100 µM each time. This molecule also displayed a TGI in [6] of over 100 µM.
In the case of `CC(C)(C)C(=O)OCC1CCC(n2cnc3c(=O)[nH]c(N)nc32)O1` (stereo unspecified), the TGI in assay [1], in [3], in [7], in assay [4] and in assay [8] was over 100 µM each time.
Regarding `CCc1cccc(CC)c1NC(=O)C1=C(C)NC(C)=C(C(=O)Nc2c(CC)cccc2CC)C1c1ccc([N+](=O)[O-])cc1`, the TGI in [1] is 39.9 µM; in assay [3], over 100 µM; in assay [4], 39.6 µM; in assay [8], 64 µM; in [5] it was 48.7 µM; in assay [6], 43.3 µM.
For the molecule `O=C(Nc1cccc(O)c1)C(=O)C(C(=O)c1ccc(Cl)c(Cl)c1)C1OC(=O)c2ccccc21` (stereo unspecified), the TGI came to 40.6 µM in assay [1]; 26.6 µM in assay [2]; 33.7 µM in assay [3]; 35 µM in [7]; 53.8 µM in [4]; 41.9 µM in assay [8]. In addition, the TGI in assay [5] is 36.5 µM; in [6], 29.2 µM.
For the molecule `CCc1cc(CCC(=O)Nc2c(C)cccc2C)[nH]n1`, the TGI in [1], in [2], in assay [3], in assay [7], in assay [4] and in [8] was over 100 µM throughout. The TGI in assay [5] and in assay [6] was over 100 µM throughout.
Turning to `CN(C)c1nc(=Nc2cccc(Cl)c2)ss1`, the TGI in assay [1] is 25.8 µM; in assay [2], 34 µM; in assay [3], 30.4 µM; in assay [7], 27.9 µM; in assay [4] it was 49.4 µM; in assay [8], 93 µM. The figures for the TGI in assay [5] and in assay [6] were 23 µM and 22.4 µM, respectively.
In the case of `COC(=O)C(Cc1nc2ccccc2[nH]c1=O)C(=O)C(=O)Nc1ccc([N+](=O)[O-])cc1[N+](=O)[O-]` (stereo unspecified), the TGI is 40.1 µM in [1]; over 100 µM in assay [2]; 47.7 µM in assay [3]; 34.5 µM in [7]; 40.9 µM in assay [8]; 66.5 µM in assay [5]. The molecule further returned a TGI in assay [6] of 59.1 µM.
As for `CC(=O)OC1CC2C(C)(C)C(=O)C=C[C@]2(C)C2CCC3(C)C(=CC(=O)C3c3ccoc3)[C@]12C` (stereo partly specified), the TGI in assay [1] was 32.6 µM; in assay [3] it was 33.1 µM; in [7] it was 26.1 µM; in assay [4] it was 45.6 µM; in [8], 33.9 µM; in assay [5], 34.1 µM. The molecule also came in with a TGI in [6] of 34 µM.
For the molecule `CN(C)C=C1C(Cl)=C(C=O)CC(C=O)=C1Cl`, the TGI in [1] was 22.6 µM; in assay [3], 27.6 µM; in assay [7], 11.9 µM; in assay [4] it was 21.8 µM; in assay [5], 4.74 µM; in assay [6] it was 10.2 µM.
`CC1=NN(C(=O)c2ccc([N+](=O)[O-])cc2)C(=O)C1N=Nc1ccccc1C(=O)O` (stereo unspecified): the TGI in assay [1] is over 100 µM; in assay [3] it was over 100 µM; in assay [4] it was 97.2 µM; in assay [8], over 100 µM; in assay [5], over 100 µM; in assay [6], over 100 µM.
As for `CC(=O)[CH-]C(=O)c1ccccc1.CC(=O)[CH-]C(=O)c1ccccc1.CCOCC[O-].CCOCC[O-].[Ti+4]`, the GI50 was 10.8 µM in assay [1]; 13.8 µM in assay [3]; 28.3 µM in assay [7]; 22.9 µM in assay [8]; 13.8 µM in assay [5]; 10.4 µM in assay [6]. For the same molecule, the TGI came to 27.6 µM in assay [1]; 34.8 µM in assay [3]; 91.9 µM in assay [7]; 47.9 µM in assay [8]; 45.4 µM in assay [5]; 56.5 µM in assay [6].
As for `O=c1c2cccc3cccc(c4n1CCN=4)c32`, the TGI in [1] is over 100 µM; in assay [2], 81.5 µM; in assay [3] it was over 100 µM; in assay [7], over 100 µM; in assay [4], over 100 µM; in assay [8], over 100 µM. In addition, the TGI in assay [5] and in assay [6] was over 100 µM each time.
Consider `CO[C@H](C(=O)[C@@H](O)[C@@H](C)O)[C@@H]1Cc2cc3cc(OC4CC(OC5CC(O)C(O)C(C)O5)C(O)C(C)O4)c(C)c(O)c3c(O)c2C(=O)[C@H]1OC1CC(OC2CC(OC3CC(C)(O)C(O)C(C)O3)C(O)C(C)O2)C(O)C(C)O1` (stereo partly specified), for which the GI50 in assay [1] is 0.02 µg/mL and 0.0182 µg/mL; in assay [3], 0.0242 µg/mL and 0.0192 µg/mL; in assay [7], 0.286 µg/mL and 0.843 µg/mL; in [4], 0.0278 µg/mL and 0.016 µg/mL; in assay [8], 0.0084 µg/mL and 0.0164 µg/mL; in assay [5] it was 0.05 µg/mL and 0.0761 µg/mL. Also, the GI50 in assay [9] is 0.0222 µg/mL and 0.0246 µg/mL and 1.25 µM; in [6], 0.0223 µg/mL.
On to `O=[N+]([O-])C1Cc2ccccc2OC1c1ccccc1` (stereo unspecified), for which the TGI in [1] was over 100 µM; in [2] it was 66.6 µM; in assay [3], over 100 µM; in [4] it was over 100 µM; in assay [8] it was over 100 µM; in assay [5], over 100 µM. Moreover, the TGI in [6] was 70.7 µM.
For `CC(C)(C)C1CCC2c3c([nH]c4ccccc34)C3C(=O)N(c4ccccc4)C(=O)C3C2C1` (stereo unspecified), the TGI in assay [1] is 18.8 µM; in [3], 52.5 µM; in assay [7], over 100 µM; in assay [8] it was 5.99 µM; in assay [5], 30.6 µM; in assay [6], 14 µM.
Take `C=C[C@@]1(O)CCCC2=C(C(=O)OCC)CC[C@]21C`: the TGI in assay [1], in assay [2], in assay [3], in assay [7], in [4] and in assay [5] was over 100 µM throughout. Besides, in [6], the TGI is over 100 µM.
Regarding `O=S1Nc2c(Cl)cc(Cl)c3c(Cl)cc(Cl)c(c23)N1`, the TGI is over 100 µM in assay [1]; over 100 µM in [3]; over 100 µM in assay [7]; 51 µM in assay [4]; 74.4 µM in [8]; over 100 µM in [5]. The molecule also gave a TGI in assay [6] of over 100 µM.
As to `C/C=C/CC(C)[C@@H](O)[C@H](NC)C(=O)O` (stereo partly specified), the TGI in [1], in assay [3], in [7], in assay [4], in assay [5] and in [6] was over 100 µM throughout.
